Laboratory results taken from PMC6131539, “Behavioral Effects of a Potential Novel TAAR1 Antagonist” (Frontiers in Pharmacology, 2018).

Key:
Assay in all cases: PDSP binding, primary screen
5-ht5a = biological target: T1, 5-ht5a (Homo sapiens, UniProt P47898)
T1 construct: purchased NIMH Psychoactive Drug Screening Program (PDSP), University of North Carolina-Chapel Hill
Experimental: (§1) This was achieved through the identification of potential pharmacological targets of compound 22 using the Psychoactive Drug Screening Program (PDSP) at University of North Carolina-Chapel-Hill. PDSP provides a platform for screening novel psychoactive compounds on human proteins expressed in the central nervous system in order to identify their biological target(s) ([Besnard et al., 2012]). Binding studies were done on 47 targets at a single dose of compound 22 (10 μM; Supplementary Table S1). This primary screen yielded a total of 5 hits for compound 22 (Table 2). These hits were the serotonin, dopamine, and norepinephrine transporters, as well as the sigma 1 and sigma 2 receptors.
(§2) Supplemental Table 1. Compound 22 binding studies from PDSP: primary screen for compound 22 and subsequent hits (50% cut-off, hits highlighted in red). The primary screen was performed by PDSP as described previously (Besnard et al., 2012).

H1 = biological target: T2, H1 (Homo sapiens, UniProt P35367)
T2 construct: purchased NIMH Psychoactive Drug Screening Program (PDSP), University of North Carolina-Chapel Hill
Experimental: as §1, §2

M5 = biological target: T3, M5 (Homo sapiens, UniProt P08912)
T3 construct: purchased NIMH Psychoactive Drug Screening Program (PDSP), University of North Carolina-Chapel Hill
Experimental: as §1, §2

D5 = biological target: T4, D5 (Homo sapiens, UniProt P21918)
T4 construct: purchased NIMH Psychoactive Drug Screening Program (PDSP), University of North Carolina-Chapel Hill
Experimental: as §1, §2

5-HT1B = biological target: T5, 5-HT1B (Homo sapiens, UniProt P28222)
T5 construct: purchased NIMH Psychoactive Drug Screening Program (PDSP), University of North Carolina-Chapel Hill
Experimental: as §1, §2

Alpha1B = biological target: T6, Alpha1B (Homo sapiens, UniProt P35368)
T6 construct: purchased NIMH Psychoactive Drug Screening Program (PDSP), University of North Carolina-Chapel Hill
T6 sequence (P35368 whole entry): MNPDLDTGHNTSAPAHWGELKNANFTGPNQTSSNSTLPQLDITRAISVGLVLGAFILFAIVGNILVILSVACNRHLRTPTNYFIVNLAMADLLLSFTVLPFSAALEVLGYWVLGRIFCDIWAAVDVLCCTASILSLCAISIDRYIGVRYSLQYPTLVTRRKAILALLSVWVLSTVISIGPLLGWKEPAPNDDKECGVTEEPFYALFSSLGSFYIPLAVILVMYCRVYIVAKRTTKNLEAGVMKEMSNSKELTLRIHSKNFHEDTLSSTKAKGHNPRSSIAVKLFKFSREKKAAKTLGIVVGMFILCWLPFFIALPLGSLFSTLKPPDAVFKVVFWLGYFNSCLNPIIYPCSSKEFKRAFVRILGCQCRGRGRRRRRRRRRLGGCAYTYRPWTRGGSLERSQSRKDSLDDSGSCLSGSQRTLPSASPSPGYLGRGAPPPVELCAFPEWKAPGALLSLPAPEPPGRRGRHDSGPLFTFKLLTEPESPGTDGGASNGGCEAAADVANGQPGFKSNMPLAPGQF
Experimental: as §1, §2

D2 = biological target: T7, D2 (Homo sapiens, UniProt P14416)
T7 construct: purchased NIMH Psychoactive Drug Screening Program (PDSP), University of North Carolina-Chapel Hill
Experimental: as §1, §2

DAT = biological target: T8, DAT (Homo sapiens, UniProt Q01959)
T8 construct: purchased NIMH Psychoactive Drug Screening Program (PDSP), University of North Carolina-Chapel Hill
T8 sequence (Q01959 whole entry): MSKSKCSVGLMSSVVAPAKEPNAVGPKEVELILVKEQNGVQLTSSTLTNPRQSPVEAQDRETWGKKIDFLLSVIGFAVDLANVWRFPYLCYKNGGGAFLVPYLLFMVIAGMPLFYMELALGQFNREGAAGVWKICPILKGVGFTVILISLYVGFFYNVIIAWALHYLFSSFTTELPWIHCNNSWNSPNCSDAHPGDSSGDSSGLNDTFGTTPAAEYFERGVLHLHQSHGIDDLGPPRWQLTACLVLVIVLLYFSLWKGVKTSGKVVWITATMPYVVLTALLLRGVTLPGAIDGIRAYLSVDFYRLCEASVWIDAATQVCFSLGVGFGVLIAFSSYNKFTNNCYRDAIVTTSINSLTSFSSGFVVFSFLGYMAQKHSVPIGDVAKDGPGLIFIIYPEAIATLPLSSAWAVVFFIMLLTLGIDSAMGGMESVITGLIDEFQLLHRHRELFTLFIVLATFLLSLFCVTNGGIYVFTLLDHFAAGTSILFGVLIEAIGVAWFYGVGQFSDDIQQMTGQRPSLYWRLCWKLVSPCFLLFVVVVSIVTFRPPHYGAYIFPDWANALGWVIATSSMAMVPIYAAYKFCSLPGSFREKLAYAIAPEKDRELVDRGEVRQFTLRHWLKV
Experimental: as §1, §2

H3 = biological target: T9, H3 (Homo sapiens, UniProt Q9Y5N1)
T9 construct: purchased NIMH Psychoactive Drug Screening Program (PDSP), University of North Carolina-Chapel Hill
Experimental: as §1, §2

NET = biological target: T10, NET (Homo sapiens, UniProt P23975)
T10 construct: purchased NIMH Psychoactive Drug Screening Program (PDSP), University of North Carolina-Chapel Hill
Experimental: as §1, §2

Beta1 = biological target: T11, Beta1 (Homo sapiens, UniProt P08588)
T11 construct: purchased NIMH Psychoactive Drug Screening Program (PDSP), University of North Carolina-Chapel Hill
Experimental: as §1, §2

Alpha2B = biological target: T12, Alpha2B (Homo sapiens, UniProt P18089)
T12 construct: purchased NIMH Psychoactive Drug Screening Program (PDSP), University of North Carolina-Chapel Hill
T12 sequence (P18089 whole entry): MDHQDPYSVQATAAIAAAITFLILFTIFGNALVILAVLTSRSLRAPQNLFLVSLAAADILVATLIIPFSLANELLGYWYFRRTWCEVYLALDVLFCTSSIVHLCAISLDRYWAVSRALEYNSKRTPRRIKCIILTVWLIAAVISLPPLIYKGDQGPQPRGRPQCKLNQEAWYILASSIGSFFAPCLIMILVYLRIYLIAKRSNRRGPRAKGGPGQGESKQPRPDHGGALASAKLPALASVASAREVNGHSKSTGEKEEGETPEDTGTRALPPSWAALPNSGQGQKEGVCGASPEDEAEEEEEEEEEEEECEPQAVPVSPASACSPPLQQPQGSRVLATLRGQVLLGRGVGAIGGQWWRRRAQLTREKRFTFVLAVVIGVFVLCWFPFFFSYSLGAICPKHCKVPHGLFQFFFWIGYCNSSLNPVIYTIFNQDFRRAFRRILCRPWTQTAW
Experimental: as §1, §2

Alpha2A = biological target: T13, Alpha2A (Homo sapiens, UniProt P08913)
T13 construct: purchased NIMH Psychoactive Drug Screening Program (PDSP), University of North Carolina-Chapel Hill
Experimental: as §1, §2

5-HT1D = biological target: T14, 5-HT1D (Homo sapiens, UniProt P28221)
T14 construct: purchased NIMH Psychoactive Drug Screening Program (PDSP), University of North Carolina-Chapel Hill
T14 sequence (P28221 whole entry): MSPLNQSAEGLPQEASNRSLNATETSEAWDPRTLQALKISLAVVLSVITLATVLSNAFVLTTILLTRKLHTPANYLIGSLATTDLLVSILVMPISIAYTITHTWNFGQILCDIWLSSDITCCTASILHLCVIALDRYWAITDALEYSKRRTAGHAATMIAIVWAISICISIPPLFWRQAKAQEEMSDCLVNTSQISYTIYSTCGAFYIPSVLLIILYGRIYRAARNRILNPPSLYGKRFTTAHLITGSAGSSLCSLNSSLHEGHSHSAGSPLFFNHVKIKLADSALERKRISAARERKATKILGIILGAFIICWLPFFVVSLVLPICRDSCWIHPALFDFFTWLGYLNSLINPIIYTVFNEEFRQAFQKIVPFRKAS
Experimental: as §1, §2

SERT = biological target: T15, SERT (Homo sapiens, UniProt P31645)
T15 construct: purchased NIMH Psychoactive Drug Screening Program (PDSP), University of North Carolina-Chapel Hill
Experimental: as §1, §2

5-HT1A = biological target: T16, 5-HT1A (Homo sapiens, UniProt P08908)
T16 construct: purchased NIMH Psychoactive Drug Screening Program (PDSP), University of North Carolina-Chapel Hill
Experimental: as §1, §2

5-HT3 = biological target: T17, 5-HT3 (Homo sapiens, UniProt P46098)
T17 construct: purchased NIMH Psychoactive Drug Screening Program (PDSP), University of North Carolina-Chapel Hill
Experimental: as §1, §2

Beta2 = biological target: T18, Beta2 (Homo sapiens, UniProt P07550)
T18 construct: purchased NIMH Psychoactive Drug Screening Program (PDSP), University of North Carolina-Chapel Hill
Experimental: as §1, §2

MOR = biological target: T19, MOR (Homo sapiens, UniProt P35372)
T19 construct: purchased NIMH Psychoactive Drug Screening Program (PDSP), University of North Carolina-Chapel Hill
Experimental: as §1, §2

M2 = biological target: T20, M2 (Homo sapiens, UniProt P08172)
T20 construct: purchased NIMH Psychoactive Drug Screening Program (PDSP), University of North Carolina-Chapel Hill
T20 sequence (P08172 whole entry): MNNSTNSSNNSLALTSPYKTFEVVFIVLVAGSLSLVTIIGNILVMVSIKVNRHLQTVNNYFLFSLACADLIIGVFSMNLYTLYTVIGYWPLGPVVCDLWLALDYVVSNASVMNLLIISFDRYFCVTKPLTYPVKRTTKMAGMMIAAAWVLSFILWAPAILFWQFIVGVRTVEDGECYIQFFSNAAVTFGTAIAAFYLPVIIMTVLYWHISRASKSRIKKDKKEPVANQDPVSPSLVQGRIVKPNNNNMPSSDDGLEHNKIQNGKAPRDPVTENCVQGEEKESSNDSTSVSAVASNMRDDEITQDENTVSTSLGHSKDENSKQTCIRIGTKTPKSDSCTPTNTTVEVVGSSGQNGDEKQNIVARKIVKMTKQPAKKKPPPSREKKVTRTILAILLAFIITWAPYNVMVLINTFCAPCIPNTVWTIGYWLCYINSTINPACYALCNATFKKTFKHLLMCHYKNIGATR
Experimental: as §1, §2

D3 = biological target: T21, D3 (Homo sapiens, UniProt P35462)
T21 construct: purchased NIMH Psychoactive Drug Screening Program (PDSP), University of North Carolina-Chapel Hill
Experimental: as §1, §2

M1 = biological target: T22, M1 (Homo sapiens, UniProt P11229)
T22 construct: purchased NIMH Psychoactive Drug Screening Program (PDSP), University of North Carolina-Chapel Hill
T22 sequence (P11229 whole entry): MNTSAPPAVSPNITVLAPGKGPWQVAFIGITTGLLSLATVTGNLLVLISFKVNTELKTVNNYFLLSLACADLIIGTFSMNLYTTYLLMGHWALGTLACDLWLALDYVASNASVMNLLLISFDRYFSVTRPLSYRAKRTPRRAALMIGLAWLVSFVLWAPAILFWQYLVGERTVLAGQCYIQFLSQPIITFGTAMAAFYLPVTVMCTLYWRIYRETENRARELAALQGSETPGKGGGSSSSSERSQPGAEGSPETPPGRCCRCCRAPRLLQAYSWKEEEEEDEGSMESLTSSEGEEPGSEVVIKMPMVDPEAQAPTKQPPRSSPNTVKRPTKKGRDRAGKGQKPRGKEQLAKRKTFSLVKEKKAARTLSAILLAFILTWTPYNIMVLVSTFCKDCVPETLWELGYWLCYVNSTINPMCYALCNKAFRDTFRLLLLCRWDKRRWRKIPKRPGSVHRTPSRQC
Experimental: as §1, §2

H2 = biological target: T23, H2 (Homo sapiens, UniProt P25021)
T23 construct: purchased NIMH Psychoactive Drug Screening Program (PDSP), University of North Carolina-Chapel Hill
T23 sequence (P25021 whole entry): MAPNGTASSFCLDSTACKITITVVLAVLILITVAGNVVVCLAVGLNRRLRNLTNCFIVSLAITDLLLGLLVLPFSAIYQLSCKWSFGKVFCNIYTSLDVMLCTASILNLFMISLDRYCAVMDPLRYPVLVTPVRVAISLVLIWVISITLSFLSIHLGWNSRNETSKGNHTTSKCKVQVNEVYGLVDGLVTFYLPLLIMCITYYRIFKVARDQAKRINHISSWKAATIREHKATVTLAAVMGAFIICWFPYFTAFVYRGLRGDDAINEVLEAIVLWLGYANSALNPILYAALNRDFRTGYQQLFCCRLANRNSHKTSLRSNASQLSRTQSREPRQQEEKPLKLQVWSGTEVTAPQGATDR
Experimental: as §1, §2

M4 = biological target: T24, M4 (Homo sapiens, UniProt P08173)
T24 construct: purchased NIMH Psychoactive Drug Screening Program (PDSP), University of North Carolina-Chapel Hill
Experimental: as §1, §2

H4 = biological target: T25, H4 (Homo sapiens, UniProt Q9H3N8)
T25 construct: purchased NIMH Psychoactive Drug Screening Program (PDSP), University of North Carolina-Chapel Hill
Experimental: as §1, §2

M3 = biological target: T26, M3 (Homo sapiens, UniProt P20309)
T26 construct: purchased NIMH Psychoactive Drug Screening Program (PDSP), University of North Carolina-Chapel Hill
Experimental: as §1, §2

Alpha1D = biological target: T27, Alpha1D (Homo sapiens, UniProt P25100)
T27 construct: purchased NIMH Psychoactive Drug Screening Program (PDSP), University of North Carolina-Chapel Hill
T27 sequence (P25100 whole entry): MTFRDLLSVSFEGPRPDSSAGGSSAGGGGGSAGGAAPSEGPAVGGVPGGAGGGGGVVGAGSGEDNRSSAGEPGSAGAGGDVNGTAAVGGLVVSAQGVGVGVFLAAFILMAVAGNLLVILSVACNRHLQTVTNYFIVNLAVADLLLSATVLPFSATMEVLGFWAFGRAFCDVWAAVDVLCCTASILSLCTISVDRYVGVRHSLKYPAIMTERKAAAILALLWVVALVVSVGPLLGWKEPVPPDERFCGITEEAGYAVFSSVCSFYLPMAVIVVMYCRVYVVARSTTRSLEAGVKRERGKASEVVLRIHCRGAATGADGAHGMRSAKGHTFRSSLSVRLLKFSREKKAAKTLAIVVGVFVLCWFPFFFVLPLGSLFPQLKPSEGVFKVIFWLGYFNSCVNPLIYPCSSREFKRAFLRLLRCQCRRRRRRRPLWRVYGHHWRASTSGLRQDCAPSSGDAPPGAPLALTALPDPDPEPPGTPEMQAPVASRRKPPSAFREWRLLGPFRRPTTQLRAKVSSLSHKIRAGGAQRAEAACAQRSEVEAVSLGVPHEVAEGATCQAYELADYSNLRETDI
Experimental: as §1, §2

Alpha1A = biological target: T28, Alpha1A (Homo sapiens, UniProt P35348)
T28 construct: purchased NIMH Psychoactive Drug Screening Program (PDSP), University of North Carolina-Chapel Hill
Experimental: as §1, §2

5-HT7 = biological target: T29, 5-HT7 (Homo sapiens, UniProt P34969)
T29 construct: purchased NIMH Psychoactive Drug Screening Program (PDSP), University of North Carolina-Chapel Hill
Experimental: as §1, §2

D1 = biological target: T30, D1 (Homo sapiens, UniProt P21728)
T30 construct: purchased NIMH Psychoactive Drug Screening Program (PDSP), University of North Carolina-Chapel Hill
Experimental: as §1, §2

5-HT6 = biological target: T31, 5-HT6 (Homo sapiens, UniProt P50406)
T31 construct: purchased NIMH Psychoactive Drug Screening Program (PDSP), University of North Carolina-Chapel Hill
Experimental: as §1, §2

KOR = biological target: T32, KOR (Homo sapiens, UniProt P41145)
T32 construct: purchased NIMH Psychoactive Drug Screening Program (PDSP), University of North Carolina-Chapel Hill
Experimental: as §1, §2

D4 = biological target: T33, D4 (Homo sapiens, UniProt P21917)
T33 construct: purchased NIMH Psychoactive Drug Screening Program (PDSP), University of North Carolina-Chapel Hill
Experimental: as §1, §2

5-HT2A = biological target: T34, 5-HT2A (Homo sapiens, UniProt P28223)
T34 construct: purchased NIMH Psychoactive Drug Screening Program (PDSP), University of North Carolina-Chapel Hill
T34 sequence (P28223 whole entry): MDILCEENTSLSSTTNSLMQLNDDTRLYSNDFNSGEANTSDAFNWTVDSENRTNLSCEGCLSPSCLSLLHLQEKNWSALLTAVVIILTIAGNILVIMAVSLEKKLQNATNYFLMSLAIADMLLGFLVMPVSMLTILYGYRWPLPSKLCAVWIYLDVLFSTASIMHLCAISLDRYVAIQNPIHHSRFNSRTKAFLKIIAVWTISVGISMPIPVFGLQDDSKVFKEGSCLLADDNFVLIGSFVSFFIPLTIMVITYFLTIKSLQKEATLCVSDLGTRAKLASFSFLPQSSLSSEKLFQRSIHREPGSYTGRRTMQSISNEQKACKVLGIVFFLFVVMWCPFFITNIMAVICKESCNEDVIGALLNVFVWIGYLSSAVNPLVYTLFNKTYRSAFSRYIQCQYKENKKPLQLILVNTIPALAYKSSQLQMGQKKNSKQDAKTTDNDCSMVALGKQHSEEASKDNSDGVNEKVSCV
Experimental: as §1, §2

5-HT2C = biological target: T35, 5-HT2C (Homo sapiens, UniProt P28335)
T35 construct: purchased NIMH Psychoactive Drug Screening Program (PDSP), University of North Carolina-Chapel Hill
Experimental: as §1, §2

Alpha2C = biological target: T36, Alpha2C (Homo sapiens, UniProt P18825)
T36 construct: purchased NIMH Psychoactive Drug Screening Program (PDSP), University of North Carolina-Chapel Hill
Experimental: as §1, §2

5-HT2B = biological target: T37, 5-HT2B (Homo sapiens, UniProt P41595)
T37 construct: purchased NIMH Psychoactive Drug Screening Program (PDSP), University of North Carolina-Chapel Hill
Experimental: as §1, §2

5-HT1E = biological target: T38, 5-HT1E (Homo sapiens, UniProt P28566)
T38 construct: purchased NIMH Psychoactive Drug Screening Program (PDSP), University of North Carolina-Chapel Hill
T38 sequence (P28566 whole entry): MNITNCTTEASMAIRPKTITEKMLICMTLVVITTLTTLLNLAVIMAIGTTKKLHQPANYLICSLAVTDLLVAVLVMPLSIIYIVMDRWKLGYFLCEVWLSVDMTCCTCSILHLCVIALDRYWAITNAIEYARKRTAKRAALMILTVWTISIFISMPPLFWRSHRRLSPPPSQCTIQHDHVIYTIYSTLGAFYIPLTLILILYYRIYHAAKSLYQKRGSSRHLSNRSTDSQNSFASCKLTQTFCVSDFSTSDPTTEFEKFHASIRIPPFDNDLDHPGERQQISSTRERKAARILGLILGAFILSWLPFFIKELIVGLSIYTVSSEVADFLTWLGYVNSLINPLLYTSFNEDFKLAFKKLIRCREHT
Experimental: as §1, §2

Sigma 1 = biological target: T39, Sigma 1 (Homo sapiens, UniProt Q99720)
T39 construct: purchased NIMH Psychoactive Drug Screening Program (PDSP), University of North Carolina-Chapel Hill
T39 sequence (Q99720 whole entry): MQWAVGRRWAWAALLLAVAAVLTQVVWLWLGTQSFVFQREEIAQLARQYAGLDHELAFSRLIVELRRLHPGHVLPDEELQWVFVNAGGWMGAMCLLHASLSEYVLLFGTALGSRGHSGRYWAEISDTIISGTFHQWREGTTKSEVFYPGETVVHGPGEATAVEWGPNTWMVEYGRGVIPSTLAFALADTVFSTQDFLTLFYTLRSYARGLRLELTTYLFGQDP
Experimental: as §1, §2

DOR = biological target: T40, DOR (Homo sapiens, UniProt P41143)
T40 construct: purchased NIMH Psychoactive Drug Screening Program (PDSP), University of North Carolina-Chapel Hill
Experimental: as §1, §2

Beta3 = biological target: T41, Beta3 (Homo sapiens, UniProt P13945)
T41 construct: purchased NIMH Psychoactive Drug Screening Program (PDSP), University of North Carolina-Chapel Hill
Experimental: as §1, §2

In the case of `Clc1ccc(CNCc2ccc(Cn3cncn3)cc2)c(Cl)c1` [compound 22], the inhibition at 10 µM (5-ht5a) is reported as 15.3%, the inhibition at 10 µM (H1) is reported as 6.3% and the inhibition at 10 µM (M5) is reported as 1.4%. The inhibition at 10 µM (D5) was -6.8%, the inhibition at 10 µM (5-HT1B) was -13.5% and the inhibition at 10 µM (Alpha1B) was 12.8%. It also gave an inhibition at 10 µM (D2) of 36.7%, an inhibition at 10 µM (DAT) of 60.5% and an inhibition at 10 µM (H3) of 17.8%. For the same compound, the inhibition at 10 µM (NET) was 93.4%, the inhibition at 10 µM (Beta1) was -3.5% and the inhibition at 10 µM (Alpha2B) was 22.6%. For the same compound, the inhibition at 10 µM (Alpha2A) was 32.4%, the inhibition at 10 µM (5-HT1D) was 9.7% and the inhibition at 10 µM (SERT) was 57.3%. It also gave an inhibition at 10 µM (5-HT1A) of 9.3%, an inhibition at 10 µM (5-HT3) of 6% and an inhibition at 10 µM (Beta2) of -0.6%. For the same compound, the inhibition at 10 µM (MOR) was -3.7%, the inhibition at 10 µM (M2) was 7.1% and the inhibition at 10 µM (D3) was 9.4%. The inhibition at 10 µM (M1) was 18.3%, the inhibition at 10 µM (H2) was 45.2% and the inhibition at 10 µM (M4) was 15.9%. For the same compound, the inhibition at 10 µM (H4) was -9.8%, the inhibition at 10 µM (M3) was 15.5% and the inhibition at 10 µM (Alpha1D) was 11.6%. It also gave an inhibition at 10 µM (Alpha1A) of -13.9%, an inhibition at 10 µM (5-HT7) of 20.2% and an inhibition at 10 µM (D1) of 16.1%. It also gave an inhibition at 10 µM (5-HT6) of 4.6%, an inhibition at 10 µM (KOR) of -10.2% and an inhibition at 10 µM (D4) of 17.6%. For the same compound, the inhibition at 10 µM (5-HT2A) was 2.1%, the inhibition at 10 µM (5-HT2C) was 18.5% and the inhibition at 10 µM (Alpha2C) was -4.3%. It also gave an inhibition at 10 µM (5-HT2B) of 6.7%, an inhibition at 10 µM (5-HT1E) of -1.7% and an inhibition at 10 µM (Sigma 1) of 93.2%. For the same compound, the inhibition at 10 µM (DOR) was 6.2% and the inhibition at 10 µM (Beta3) was -9.1%.
